Reference: publication PMC11447181 (Nature Communications, 2024)
Where “and” joins values, the source holds several entries; their conditions need not be identical. Identical values can stand only once. Entries after “also recorded” stand apart in the source; their conditions may differ.

Legend:
[1] = target: T1, hSLC19A3-wt overexpressed in Expi293F cells (Homo sapiens, UniProt Q9BZV2); experiment: Mass spectrometry-based cellular thiamine-d3 uptake assay; type: cell-based; details: 200 μM compound, 2 μM thiamine-d3, 5 min, n = 3
T1 construct: full-length, wildtype human SLC19A3; expressed in transfected cells; host or cells: Expi293F
T1 sequence (Q9BZV2 with tags, fused parts or gaps): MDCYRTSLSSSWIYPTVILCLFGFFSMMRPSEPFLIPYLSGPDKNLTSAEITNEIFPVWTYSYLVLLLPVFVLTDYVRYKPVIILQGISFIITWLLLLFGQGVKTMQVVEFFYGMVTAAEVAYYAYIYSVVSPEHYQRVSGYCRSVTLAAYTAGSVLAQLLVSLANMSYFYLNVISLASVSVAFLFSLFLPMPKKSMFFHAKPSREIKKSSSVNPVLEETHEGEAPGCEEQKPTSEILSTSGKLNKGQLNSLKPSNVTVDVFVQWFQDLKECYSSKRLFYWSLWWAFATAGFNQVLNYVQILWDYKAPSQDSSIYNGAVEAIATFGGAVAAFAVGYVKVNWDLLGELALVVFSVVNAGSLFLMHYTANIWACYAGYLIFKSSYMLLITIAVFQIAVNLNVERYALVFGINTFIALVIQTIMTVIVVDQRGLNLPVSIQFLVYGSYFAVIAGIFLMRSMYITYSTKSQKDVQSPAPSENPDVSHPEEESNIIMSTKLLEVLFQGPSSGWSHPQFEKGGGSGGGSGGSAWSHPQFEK
Protocol: The cells were then pelleted for 5 min at 250×g and resuspended in 1×PBS (pH 7.4) at a cell density of 2 million cells per mL. The cell suspension was subsequently transferred to a 96-deep well plate in three technical replicates per condition (n = 3, 1 mL per well, corresponding to 2 million cells per condition). 200 μM of the selected compounds were added to the respective wells and the cells were incubated for 1 min on a shaking platform. […] Afterwards, the cells were pelleted for 5 min at 500×g and washed 3× with 1 mL 1×PBS (pH7.4), before transferring them to a fresh 96-deep well plate. The cell pellets were stored at –70 °C. For the LC-MS/MS analysis, the samples were extracted by adding 500 µL of a mixture of H2O:MeOH:ACN (1:1:1, v/v), containing 5% (v/v) formic acid. After vortexing and ultrasonication in a water bath for 5 min at 4 °C, samples were incubated for 20 min at –20 °C. […] The supernatants were then transferred for LC-MS analysis, which was initiated within one hour after sample preparation. LC-MS/MS analysis was performed on a Vanquish UHPLC system coupled to an Orbitrap Exploris 240 high-resolution mass spectrometer (Thermo Fisher Scientific, MA, USA) in positive ESI (electrospray ionization) mode. Chromatographic separation was carried out on an Atlantis Premier BEH Z-HILIC column (Waters, MA, USA; 2.1 mm × 100 mm, 1.7 µm) at a flow rate of 0.25 mL/min. The mobile phase consisted of water:acetonitrile (9:1, v/v; mobile phase phase A) and acetonitrile:water (9:1, v/v; mobile phase B), which were modified with a total buffer concentration of 10 mM ammonium formate. The aqueous portion of each mobile phase was adjusted to pH 3.0 via addition of formic acid. The following gradient (8 min total run time including re-equilibration) was applied (time [min]/%B): 0/90, 3/85, 3.5/60, 4/60, 5/90, 8/90. Column temperature was maintained at 40 °C, the autosampler was set to 4 °C and sample injection volume was set to 3 µL. Analytes were recorded via a full scan with a mass resolving power of 120,000 over a mass range from 60 to 900 m/z (scan time: 100 ms, RF lens: 70%).
All experimental samples were measured in a randomized manner. Pooled quality control (QC) samples were prepared by mixing equal aliquots from each processed sample. Multiple QCs were injected at the beginning of the analysis in order to equilibrate the analytical system. A QC sample was analyzed after every 6th experimental sample to monitor instrument performance throughout the sequence. For determination of background signals and subsequent background subtraction, an additional processed blank sample was recorded. Data was processed using TraceFinder 5.1 and raw peak area data was exported for relative metabolite quantification.

SLC19A3 = details: cited from earlier work
[2] = clinical trial ID NCT01437787; cited from earlier work
hSLC19A3-wt = target: T2, hSLC19A3-wt (Homo sapiens, UniProt Q9BZV2); experiment: nanoDSF thermal shift assay / apparent binding affinity, wildtype transporter
T2 construct: full-length, wildtype human SLC19A3; made in house; host or cells: Expi293F
T2 sequence (Q9BZV2 with tags, fused parts or gaps): as above

hSLC19A3 N297A = hSLC19A3 N297A (Homo sapiens, UniProt Q9BZV2, N297A); details: N297A mutant
Sequence of hSLC19A3 N297A (Q9BZV2 with tags, fused parts or gaps N297A): as the sequence (Q9BZV2 with tags, fused parts or gaps) above, with N297A counted along it
Protocol: (§1) The thermal stability of the hSLC19A3 constructs and their binding affinities for small molecules were determined by nanoDSF, using a Prometheus NT.48 (NanoTemper Technologies). For sample preparation, the protein was diluted to a final concentration of 4 μM in SEC buffer and supplied with the respective compounds in a concentration range from 2 μM to 2 mM. Before measurement, the samples were incubated for 30 min at room temperature. Melting scans were performed at a temperature range from 20 to 95 °C with a temperature increment of 1 °C per minute. Thermal unfolding curves were recorded by measuring the ratio of the tryptophan-fluorescence at 350 nm (F350) and 330 nm (F330). The protein melting temperature (Tm) of a given sample was determined as the inflection point of the thermal unfolding curves, or the local maximum of its first derivative. The measured curves were analysed using the manufacturer’s software (PR.ThermControl, v 2.1.2, NanoTemper Technologies). Based on the determined Tm values, ligand induced thermal shifts (ΔTm) were determined as the difference between the melting temperature of the ligand-bound state (Tm) and the apo state (Tm^apo).
As R, Tstd and L are known and the ΔTm and Tm^apo are experimentally determined, non-linear curve fitting can be used to estimate Ea1 and Kd,app. […]

MFSD1 = details: negative control; thiamine titration 1.95 μM to 2 mM
Protocol: as §1

hSLC19A3 Q300A = hSLC19A3 Q300A (Homo sapiens, UniProt Q9BZV2, Q300A); experiment: biochemical
Sequence of hSLC19A3 Q300A (Q9BZV2 with tags, fused parts or gaps Q300A): as the sequence (Q9BZV2 with tags, fused parts or gaps) above, with Q300A counted along it
Protocol: as §1
(§2) As R, Tstd and L are known and the ΔTm and Tm^apo are experimentally determined, non-linear curve fitting can be used to estimate Ea1 and Kd,app. The fitting was performed using symfit (v. 0.5.3), as described in Kotov et al., based on theoretical considerations formulated in Hall, 2019[56].

hSLC19A3 W59A = hSLC19A3 W59A (Homo sapiens, UniProt Q9BZV2, W59A); experiment: biochemical
Sequence of hSLC19A3 W59A (Q9BZV2 with tags, fused parts or gaps W59A): as the sequence (Q9BZV2 with tags, fused parts or gaps) above, with W59A counted along it
Protocol: as §1, §2

hSLC19A3 Y151A = hSLC19A3 Y151A (Homo sapiens, UniProt Q9BZV2, Y151A); experiment: biochemical
Sequence of hSLC19A3 Y151A (Q9BZV2 with tags, fused parts or gaps Y151A): as the sequence (Q9BZV2 with tags, fused parts or gaps) above, with Y151A counted along it
Protocol: as §1, §2

hSLC19A3-E110Q = hSLC19A3-E110Q (Homo sapiens, UniProt Q9BZV2, E110Q); experiment: biochemical; details: Kd,app for thiamine, E110Q mutant; n = 3
Sequence of hSLC19A3-E110Q (Q9BZV2 with tags, fused parts or gaps E110Q): as the sequence (Q9BZV2 with tags, fused parts or gaps) above, with E110Q counted along it
Protocol: as §1, §2

[3] = target: hSLC19A3-gf (N45Q, N166Q) (Homo sapiens, UniProt Q9BZV2, N166Q/N45Q); experiment: biochemical
Sequence of hSLC19A3-gf (N45Q, N166Q) (Q9BZV2 with tags, fused parts or gaps N45Q/N166Q): as the sequence (Q9BZV2 with tags, fused parts or gaps) above, with N45Q, N166Q counted along it
Protocol: as §1, §2

hSLC19A3-Glu32Lys = hSLC19A3-Glu32Lys (Homo sapiens, UniProt Q9BZV2, E32K); experiment: biochemical; details: E32K mutant
Sequence of hSLC19A3-Glu32Lys (Q9BZV2 with tags, fused parts or gaps E32K): as the sequence (Q9BZV2 with tags, fused parts or gaps) above, with E32K counted along it
Protocol: as §1, §2

hSLC19A3 Y113A = hSLC19A3 Y113A (Homo sapiens, UniProt Q9BZV2, Y113A); experiment: biochemical
Sequence of hSLC19A3 Y113A (Q9BZV2 with tags, fused parts or gaps Y113A): as the sequence (Q9BZV2 with tags, fused parts or gaps) above, with Y113A counted along it
Protocol: as §1, §2

hSLC19A3-Glu320Gln = hSLC19A3-Glu320Gln (Homo sapiens, UniProt Q9BZV2, E320Q); experiment: biochemical
Sequence of hSLC19A3-Glu320Gln (Q9BZV2 with tags, fused parts or gaps E320Q): as the sequence (Q9BZV2 with tags, fused parts or gaps) above, with E320Q counted along it
Protocol: as §1, §2

hSLC19A3-Lys44Glu = hSLC19A3-Lys44Glu (Homo sapiens, UniProt Q9BZV2, K44E); experiment: biochemical
Sequence of hSLC19A3-Lys44Glu (Q9BZV2 with tags, fused parts or gaps K44E): as the sequence (Q9BZV2 with tags, fused parts or gaps) above, with K44E counted along it
Protocol: as §1, §2

hSLC19A3 Thr422Ala = hSLC19A3 Thr422Ala (Homo sapiens, UniProt Q9BZV2, T422A); experiment: biochemical
Sequence of hSLC19A3 Thr422Ala (Q9BZV2 with tags, fused parts or gaps T422A): as the sequence (Q9BZV2 with tags, fused parts or gaps) above, with T422A counted along it
Protocol: as §1, §2

hSLC19A3 F56A = hSLC19A3 F56A (Homo sapiens, UniProt Q9BZV2, F56A); experiment: biochemical
Sequence of hSLC19A3 F56A (Q9BZV2 with tags, fused parts or gaps F56A): as the sequence (Q9BZV2 with tags, fused parts or gaps) above, with F56A counted along it
Protocol: as §1, §2

hSLC19A3 Y151F = hSLC19A3 Y151F (Homo sapiens, UniProt Q9BZV2, Y151F); experiment: biochemical
Sequence of hSLC19A3 Y151F (Q9BZV2 with tags, fused parts or gaps Y151F): as the sequence (Q9BZV2 with tags, fused parts or gaps) above, with Y151F counted along it
Protocol: as §1, §2

OCT1 (SLC22A1) = details: read-out: Km (thiamine uptake); cited from earlier work
SLC19A2 = details: read-out: Km (thiamine uptake); cited from earlier work

In the case of Cc1cnc(Nc2ccc(OCCN3CCCC3)cc2)nc1Nc1cccc(S(=O)(=O)NC(C)(C)C)c1 [fedratinib], the “inhibition of thiamine uptake through hSLC19A3, in words” value [1] is listed as “strongly suppressed the thiamine transport activity of hSLC19A3”, the “substrate status at the transporter” value (SLC19A3) is listed as “xenobiotic substrates of the transporter” and the “adverse event in patients” value [2] is listed as “induced the development of Wernicke’s encephalopathy”.
For Cc1ncc(C[n+]2csc(CCO)c2C)c(N)n1 [thiamine], the Kd (hSLC19A3-wt; Kd,app (apparent dissociation constant), concentration-dependent thermal shifts, fitted for 25 °C, n = 3, mean ± s.d.) was ~12 µM and 12.7 µM, the ΔTm at 2000 µM (hSLC19A3-wt; read-out: ΔTm (thermal stabilisation of hSLC19A3)) was 10.9 ± 0.3 °C and the “thermal shift / interaction with hSLC19A3, in words” value (hSLC19A3-wt; thermal shift screen at 20 μM and 200 μM compound) was “induces a strong stabilisation; also recorded: strong stabilisation of the transporter”. For the same compound, the “loss in binding affinity for thiamine versus wildtype” value (hSLC19A3 N297A) was ~ 250 fold, the Km (SLC19A3; read-out: Km (thiamine uptake)) was 2 to 7 µM and the “response to thiamine, in words” value (MFSD1) was “shows no response to thiamine”. The Kd (hSLC19A3 Q300A) was 5.6 ± 1.4 µM, the Kd (hSLC19A3 W59A) was 8.3 ± 1 µM and the “effect of mutation on thiamine binding, in words” value (hSLC19A3 W59A; W59A mutant (aromatic clamp)) was “did not impair thiamine binding”. For the same compound, the Kd (hSLC19A3 Y151A) was 17.8 ± 1.8 µM, the Kd (hSLC19A3-E110Q) was 85 µM and 85.2 µM and ~85 µM and the Kd [3] was 10.4 ± 0.9 µM. The “effect of the glycosylation-site mutations on thiamine binding, in words” value ([3]; thermal stability experiments) was “did not show any interference of these mutations with thiamine binding”, the “drop in affinity for thiamine versus wildtype” value (hSLC19A3-Glu32Lys) was 10 fold and > 10 fold and the Kd (hSLC19A3-Glu32Lys; Kd,app for thiamine, n = 3) was 145 µM. The Kd (hSLC19A3 Y113A) was 15.5 ± 2 µM, the “effect of mutation on thiamine binding, in words” value (hSLC19A3 Y113A; Y113A mutant (aromatic clamp)) was “did not impair thiamine binding” and the Kd (hSLC19A3-Glu320Gln) was 284 ± 45 µM. The “decrease in affinity for thiamine versus wildtype” value (hSLC19A3-Glu320Gln; E320Q mutant) was 20 fold, the Kd (hSLC19A3-Lys44Glu) was 2.1 ± 0.1 µM and the “affinity for thiamine versus wildtype” value (hSLC19A3-Lys44Glu; K44E mutant) was “six-fold higher affinity”. The Kd (hSLC19A3 Thr422Ala) was 172 ± 35 µM, the Kd (hSLC19A3 F56A) was 4 ± 0.3 µM and the Kd (hSLC19A3 Y151F) was 18.7 ± 9.1 µM. For the same compound, the “effect of mutation on thiamine affinity, in words” value (hSLC19A3 Y151F; Y151F mutant) was “no strong effect on the affinity for thiamine was observed”, the Km (OCT1 (SLC22A1)) was roughly 780 µM and the Km (SLC19A2) was 2 to 7 µM.
